# Where two headings read alike, the source gives them in different places.
# Biological target: T1, SIRT1 (Homo sapiens, UniProt Q96EB6)
# T1 sequence (Q96EB6 1-747): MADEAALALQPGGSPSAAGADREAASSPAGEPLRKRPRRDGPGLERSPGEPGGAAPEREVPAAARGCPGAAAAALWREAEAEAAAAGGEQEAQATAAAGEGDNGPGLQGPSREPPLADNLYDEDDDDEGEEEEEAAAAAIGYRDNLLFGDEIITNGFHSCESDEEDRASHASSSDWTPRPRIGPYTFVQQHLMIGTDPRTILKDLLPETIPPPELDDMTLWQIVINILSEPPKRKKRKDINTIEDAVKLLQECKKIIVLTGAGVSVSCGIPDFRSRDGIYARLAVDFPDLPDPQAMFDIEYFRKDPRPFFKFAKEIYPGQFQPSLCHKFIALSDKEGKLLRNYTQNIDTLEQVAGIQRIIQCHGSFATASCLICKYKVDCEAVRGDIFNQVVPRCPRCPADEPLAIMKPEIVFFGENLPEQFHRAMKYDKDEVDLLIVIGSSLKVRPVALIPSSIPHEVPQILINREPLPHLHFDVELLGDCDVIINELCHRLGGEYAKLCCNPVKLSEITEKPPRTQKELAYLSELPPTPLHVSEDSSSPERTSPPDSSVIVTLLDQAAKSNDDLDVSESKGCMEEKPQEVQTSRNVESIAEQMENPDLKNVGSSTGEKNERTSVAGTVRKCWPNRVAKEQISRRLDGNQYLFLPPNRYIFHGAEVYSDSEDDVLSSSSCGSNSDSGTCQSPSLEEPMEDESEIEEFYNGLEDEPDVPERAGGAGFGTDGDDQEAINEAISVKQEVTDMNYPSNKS
# Test: Trp mass spectrometry assay of SIRT1 activity (EC1.5, percent maximum activation)
# Format: biochemical
# Method in brief: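 Sirtuin deacetylation was run with purified N-His SIRT1 and the 5TMR Trp peptide across a compound titration, stopped after 25 min by acidification, and analysed by MS for OAADPR. Endpoint lay within the linear range.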
# [1] = Trp mass spectrometry assay, EC1.5 = concentration giving 150% activation of SIRT1
# [2] = Trp mass spectrometry assay, percent maximum activation of SIRT1
# [3] = Trp mass spectrometry assay, 0.5 μM peptide substrate, 120 μM βNAD+, 10 nM SIRT1, 25 minutes at 25° C.
Structure (SMILES),TRP Activity (EC1.5) [1],TRP MAX RESP (percent maximum fold activation) [2],"TRP Activity (EC1.5, concentration of test compound that results in 150% activation of SIRT1) [3]",TRP MAX RESP (percent maximum fold activation) [3],other results
"Cc1cc(-c2ccc3c(n2)N(C(=O)Nc2ccc4[nH]ncc4n2)[C@H]2CCN3C2)ccn1 [Example 133, (4S)-7-(2-methylpyridin-4-yl)-N-(1H-pyrazolo[4,3-b]pyridin-5-yl)-3,4-dihydro-1,4-methanopyrido[2,3-b][1,4]diazepine-5(2H)-carboxamide]",A (EC1.5<1 μM),A (Fold activation ≧150%),,,
"O=C(Nc1cnccn1)N1c2nc(N3CCNCC3)ccc2N2CC[C@H]1C2 [Example 197, (4S)-7-(piperazin-1-yl)-N-(pyrazin-2-yl)-3,4-dihydro-1,4-methanopyrido[2,3-b][1,4]diazepine-5(2H)-carboxamide]",C (EC1.5>25 μM),B (Fold Activation <150%),,,
"O=C(Nc1cnccn1)N1c2nc(-c3ccc(C4CC4)nc3)ccc2N2CC[C@H]1C2 [Example 180, (4S)-7-(6-cyclopropylpyridin-3-yl)-N-(pyrazin-2-yl)-3,4-dihydro-1,4-methanopyrido[2,3-b][1,4]diazepine-5(2H)-carboxamide]",B (EC1.5 1-25 μM),A (Fold activation ≧150%),,,
"O=C(Nc1cnccn1)N1c2nc(-c3ccc(C(F)(F)F)nc3)ccc2N2CC[C@H]1C2 [Example 208, (4S)-N-(pyrazin-2-yl)-7-(6-(trifluoromethyl)pyridin-3-yl)-3,4-dihydro-1,4-methanopyrido[2,3-b][1,4]diazepine-5(2H)-carboxamide]",,,B (EC1.5 1-25 μM),A (Fold activation ≧150%),
"CCc1cncc(NC(=O)N2c3nc(-c4ccnc(C)c4)ccc3N3CC[C@H]2C3)n1 [Example 122, (4S)-N-(6-ethylpyrazin-2-yl)-7-(2-methylpyridin-4-yl)-3,4-dihydro-1,4-methanopyrido[2,3-b][1,4]diazepine-5(2H)-carboxamide]",A (EC1.5<1 μM),A (Fold activation ≧150%),,,
"CCc1cnc(NC(=O)N2c3nc(-c4ccc(C)nc4)ccc3N3CC[C@H]2C3)cn1 [Example 220, (4S)-N-(5-ethylpyrazin-2-yl)-7-(6-methylpyridin-3-yl)-3,4-dihydro-1,4-methanopyrido[2,3-b][1,4]diazepine-5(2H)-carboxamide]",,,B (EC1.5 1-25 μM),A (Fold activation ≧150%),
"O=C(Nc1ccc(OC[C@@H](O)CO)nc1)N1c2nc(-c3cccc(C(F)(F)F)c3)c(Cl)cc2N2CC[C@H]1C2 [Example 72, (4S)-8-chloro-N-(6-((S)-2,3-dihydroxypropoxy)pyridin-3-yl)-7-(3-(trifluoromethyl)phenyl)-3,4-dihydro-1,4-methanopyrido[2,3-b][1,4]diazepine-5(2H)-carboxamide]",A (EC1.5<1 μM),A (Fold activation ≧150%),,,
"Cc1cc(-c2ccc3c(n2)N(C(=O)N2CCO[C@H](C)C2)[C@H]2CCN3C2)ccn1.Cl [Example 232, ((R)-2-methylmorpholino)((4S)-7-(2-methylpyridin-4-yl)-3,4-dihydro-1,4-methanopyrido[2,3-b][1,4]diazepin-5(2H)-yl)methanone hydrochloride]",,,C (EC1.5>25 μM),B (Fold Activation <150%),
"Cc1cc(-c2ccc3c(n2)N(C(=O)N2CCOCC2)[C@H]2CCN3C2)ccn1 [Example 150, ((4S)-7-(2-methylpyridin-4-yl)-3,4-dihydro-1,4-methanopyrido[2,3-b][1,4]diazepin-5(2H)-yl)(morpholino)methanone]",C (EC1.5>25 μM),B (Fold Activation <150%),,,
"Cc1cc(-c2ccc3c(n2)N(C(=O)Nc2ccn(C)n2)[C@H]2CCN3C2)ccn1 [Example 182, (4S)-N-(1-methyl-1H-pyrazol-3-yl)-7-(2-methylpyridin-4-yl)-3,4-dihydro-1,4-methanopyrido[2,3-b][1,4]diazepine-5(2H)-carboxamide]",B (EC1.5 1-25 μM),A (Fold activation ≧150%),,,
"COc1cc(-c2ccc3c(n2)N(C(=O)Nc2cnccn2)[C@H]2CCN3C2)ccn1 [Example 141, (4S)-7-(2-methoxypyridin-4-yl)-N-(pyrazin-2-yl)-3,4-dihydro-1,4-methanopyrido[2,3-b][1,4]diazepine-5(2H)-carboxamide]",B (EC1.5 1-25 μM),A (Fold activation ≧150%),,,
"Cc1cc(-c2nc3c(cc2F)N2CC[C@@H](C2)N3C(=O)Nc2cccnc2)ccn1 [Example 14, (4S)-8-fluoro-7-(2-methylpyridin-4-yl)-N-(pyridin-3-yl)-3,4-dihydro-1,4-methanopyrido[2,3-b][1,4]diazepine-5(2H)-carboxamide]",B (EC1.5 1-25 μM),A (Fold activation ≧150%),,,
"Cc1ccc(-c2nc3c(cc2Cl)N2CC[C@@H](C2)N3C(=O)Nc2cccnc2)cn1 [Example 3, (4S)-8-chloro-7-(6-methylpyridin-3-yl)-N-(pyridin-3-yl)-3,4-dihydro-1,4-methanopyrido[2,3-b][1,4]diazepine-5(2H)-carboxamide]",,,,,TRP Activity (EC1.5): B (key: A: EC1.5<1 μM; B: EC1.5 1-25 μM; EC1.5>25 μM); TRP MAX RESP (percent maximum fold activation): A (key: A: Fold activation ≧150%; B: Fold Activation <150%)
"Cc1ccc(-c2ccc3c(n2)N(C(=O)Nc2cncc(OC[C@@H](O)CO)n2)[C@H]2CCN3C2)cn1 [Example 205, (4S)-N-(6-((S)-2,3-dihydroxypropoxy)pyrazin-2-yl)-7-(6-methylpyridin-3-yl)-3,4-dihydro-1,4-methanopyrido[2,3-b][1,4]diazepine-5(2H)-carboxamide]",,,B (EC1.5 1-25 μM),A (Fold activation ≧150%),
"O=C(Nc1cnccn1)N1c2nc(-c3ccnc(CO)c3)ccc2N2CC[C@H]1C2 [Example 218, (4S)-7-(2-(Hydroxymethyl)pyridin-4-yl)-N-(pyrazin-2-yl)-3,4-dihydro-1,4 methanopyrido[2,3-b][1,4]diazepine-5(2H)-carboxamide]",,,B (EC1.5 1-25 μM),A (Fold activation ≧150%),
"O=C(Nc1nccc(OC[C@H](O)CO)n1)N1c2nc(-c3cccc(C(F)(F)F)c3)c(Cl)cc2N2CC[C@H]1C2 [Example 46, (4S)-8-chloro-N-(4-((R)-2,3-dihydroxypropoxy)pyrimidin-2-yl)-7-(3-(trifluoromethyl)phenyl)-3,4-dihydro-1,4-methanopyrido[2,3-b][1,4]diazepine-5(2H)-carboxamide]",A (EC1.5<1 μM),A (Fold activation ≧150%),,,
"CC1(C)CN(c2ccc3c(n2)N(C(=O)Nc2cnccn2)[C@H]2CCN3C2)CCO1 [Example 211, (4S)-7-(2,2-dimethylmorpholino)-N-(pyrazin-2-yl)-3,4-dihydro-1,4-methanopyrido[2,3-b][1,4]diazepine-5(2H)-carboxamide]",,,A (EC1.5<1 μM),A (Fold activation ≧150%),

# From patent publication US20170355705A1 (GlaxoSmithKline Intellectual Property (No.2) Limited, priority 2014, published 2017)
